Laboratory results reported in US20050232925A1, “Protease activity of thrombin inhibits angiogenesis” (priority 2002, published 2005).

Key:
[1] = test system: HUVEC cells; assay: In vitro angiogenesis (matrigel tube formation) assay; assay type: cell-based, human
Experimental: In Vitro Angiogenesis (matrigel tube formation) Assay. Unpolymerized matrigel (7 mg/ml) was placed in the wells (100 μl/well) of a pre-chilled 48-well cell culture plate and then incubated at 37° C. for 30-45 minutes. HUVEC cells were harvested in trypsin and resuspended in EC medium (4×10^4 in 300 μl). Cells were treated with the different agents before plated onto the matrigel-coated plates. […] Microphotographs of the center of each well at low power (40×) were taken with a SPOT camera (Diagnostic Instruments Inc; Sterling Heights, Mich.) and the aid of an imaging capture software (Compix Inc Imaging Systems; Township, Pa.). The microphotographs were quantitatively analyzed (total tube length) with the Simple PCI imaging analysis software (Compix).
Matrigel tube formation assays. Samples collected from the purification process were exchanged into 1×PBS and reconstituted into 1× concentration (by volume) compared to the input tPA/captopril-treated plasma. They were tested in the matrigel tube formation assays at 10% (v/v) as follows. Unpolymerized matrigel (7 mg/ml) was placed in the wells (100 μl/well) of a pre-chilled 48-well cell culture plate and then incubated at 37° C. for 30-45 minutes for polymerization to take place. […] Tube formation was examined (4× magnification) through an inverted phase contrast microscope (Nikon Corporation; Tokyo, Japan) and recorded by a Spot RT camera (Diagnostic Instruments Inc; Sterling Heights, Mich.) using an automated image capture software (Compix Inc Imaging Systems; Township, Pa.).

[2] = test system: blood vessels in bFGF-enriched matrigel plugs; assay: In vivo matrigel-plug assay, agent mixed into matrigel; design: species or system mice
Experimental: In vivo matrigel-plug assays. The matrigel-plug assay was performed as described in Maeshima et al., (Maeshima et al., J Biol Chem 275:21340-8, 2000; Maeshima et al., J Biol Chem 276:31959-68, 2001) with modifications as follows. Briefly, 500 μl of unpolymerized matrigel at a concentration of 10 mg/ml enriched with bFGF (250 ng/ml) were mixed with one of the following: PBS (vehicle), prothrombin, or TRAP. Each mixture was injected subcutaneously at the left lower abdominal wall of C57/B mice (5 to 6-week old; Jackson laboratories; Bar Harbor, Me.). At day ten, the mice were sacrificed. The matrigel plugs were then excised, fixed in 4% paraformaldehyde, embedded in paraffin, sectioned, and H&E stained. Sections were examined by light microscopy, and the total number of blood vessels from 10 high power fields (400×) were counted in a blinded fashion. Only the micro-vessels containing red blood cells were counted as positive. Results shown represent the average of counts from 4 to 5 matrigel plugs per group.

[3] = test system: platelet aggregation; conditions: phenylalanine to alanine mutation at position 2; cited from earlier work
[4] = test system: 4T1 murine breast cancer cell line; assay: Primary tumor growth of transfected 4T1 cells in BALB/c mice; assay type: in vivo; conditions: stable expression in 4T1 cells, mammary pad of BALB/c mice, vs empty vector, five weeks
Excerpt: Construction of mutant uPA clones and cell transfection. We chose to pursue a genetic approach, in which we stably transfected an aggressive and highly metastatic murine breast cancer cell line (4T1) with the genes for wild type uPA, tPA and a receptor binding mutant of uPA (uPAm). We inserted the cDNA encoding murine tPA into pcDNA 3.1 (+) (Invitrogen), a CMV driven mammalian expression vector, by restriction enzyme digestion of BamHI and NheI. Wild type uPA cDNA was inserted to the pcDNA 3.1 (+) expression vector and the transfected into 4T1 cells in a similar fashion as described for the tPA cDNA. Residues 22, 27, 29 and 30 on the growth factor domain of the murine uPA molecule have been implicated in binding to mouse uPAR.
The pcDNA 3.1-tPA, pcDNA 3.1-wild type uPA, pcDNA 3.1-uPAm constructs, as well as an empty vector control were introduced into 4T1 cells by transfection using lipofectamine (Gibco-BRL) reagent. We selected 12-14 stable single clones in each group with 500 ug/mL of hygromycin. Each of the clones was evaluated for generation of the gene of interest by northern blot. The clones that had the highest generation of the genes of interest were selected. […]
Experiments using transfected tumor cells. […] Primary tumor size was measured every other day for a total of five weeks using calipers and calculated using the standard formula (width2×length×0.52). […]

[5] = test system: microvessels in bFGF-containing matrigel plugs; assay: In vivo angiogenesis (matrigel plug) assay, systemic treatment; design: species or system mice; conditions: rt-PA 60 μg subcutaneously/day, captopril 150 μg intraperitoneally/day, 10 days
Experimental: In Vivo Angiogenesis (Matrigel Plug) Assay. The matrigel-plug assay was performed as described in Maeshima et al., (Maeshima et al., J Biol Chem 275:21340-8, 2000; Maeshima et al., J Biol Chem 276:31959-68, 2001) with modifications as follows. All animal studies were reviewed and approved by the animal care and use committee of Beth Israel Deaconess Medical Center and are in accordance with the guidelines of the department of Health and Human Services. Five to six week-old male C57/BL6 mice (The Jackson Laboratories; Bar Harbor, Me.) were injected subcutaneously at the left lower abdominal wall with 0.5 ml of unpolymerized matrigel supplemented with 500 ng/ml of basic fibroblast growth factor for the stimulated controls and treatment groups and with equivalent volume of sterile PBS for the unstimulated (no b-FGF) control group. Mice (3 per group) were treated for 10 days with: 1) rt-PA (60 μg subcutaneously/day) and captopril (150 μg intraperitoneally/day). 2) Subcutaneous rt-PA alone with equivalent volume of intraperitoneal (IP) PBS. 3) IP captopril (150 μg) with equivalent volume of subcutaneous PBS. 4) Equivalent volumes of PBS (subcutaneously and intraperitoneally). […] Sections were examined by light microscopy, and the total number of blood vessels from 10 high power fields (400× magnification) were counted in a blinded fashion. […]

Compound: Angiostatin
- inhibition of tube formation ([1]; 10 μg/ml): did not significantly inhibit tube formation
- inhibition of tube formation ([1]; 50 μg/ml): did not significantly inhibit tube formation

Compound: SFLLRNPNDKYEPF [TRAP]
- endothelial cell tube formation ([1]; 1, 10, 100 μM TRAP): dose-dependently inhibited endothelial cell tube formation
- reduction of bFGF-stimulated blood vessel formation in matrigel plugs ([2]; 250 ng/ml bFGF, day 10, 10 ρg/ml prothrombin, 250 μM TRAP (FIG. 13)): significantly reduced

Compound: bFGF: basic fibroblast growth factor (Peprotech), proangiogenic stimulant
- increase in angiogenesis in matrigel plugs ([2]; 250 ng/ml bFGF vs no bFGF): seven-fold increase

Compound: SLIGKV
- endothelial cell tube formation ([1]; 100 μM peptide): little effect on tube formation

Compound: SALLRN
- endothelial cell tube formation ([1]; 100 μM peptide): no inhibitory effect
- ability to induce platelet aggregation in vitro [3]: completely eliminated the ability of the peptide to induce platelet aggregation

Compound: wildtype uPA: murine wild type uPA expressed from pcDNA 3.1 in 4T1 cells
- inhibition of primary tumor growth [4]: significantly inhibit tumor cell growth

Compound: SFLLRN
- endothelial cell tube formation ([1]; 50 and 100 μM SFLLRN): dose-dependent inhibitory effect on endothelial cell tube formation

Compound: C[C@H](CS)C(=O)N1CCC[C@H]1C(=O)O [captopril]
- inhibition of tube formation ([1]; in the absence of plasma, rt-PA 1 μg/ml, captopril 0.1 μM): did not cause significant inhibition of tube formation
- microvessel counts in matrigel plugs [5]: did not show major reduction of neovascularization

Compound: lepirudin
- block of thrombin inhibition of tube formation ([1]; 10 U/ml thrombin with 200 U/ml lepirudin): completely blocked
- endothelial cell tube formation ([1]; lepirudin alone at 200 U/ml): no effects in endothelial cell tube formation
- block of prothrombin inhibition of tube formation ([1]; prothrombin with 200 U/ml lepirudin): completely blocked

Compound: GYPGKF
- endothelial cell tube formation ([1]; 100 μM peptide): little effect on tube formation

Compound: thrombin
- endothelial cell tube formation ([1]; thrombin at 5 U/ml (FIGS. 11D, 11E: 1 and 5 U/ml)): minimal effects on endothelial cell tube formation
- endothelial cell tube formation ([1]; thrombin at 10 U/ml): significantly inhibits tube formation
